Converted amounts (≈) assume the structure as drawn. The source made the active and inactive calls. No cut-off for these calls is given here. Some results are limits rather than exact numbers.

Experiment [1] has as its system Bacillus anthracis. Nature of the experiment: Antimicrobial activity against Bacillus anthracis Sterne 411A2 harboring GyrA Ser85Leu and parC Ser81Phe mutant gene by broth microdilution method. Format: functional, Bacillus anthracis str. Sterne.
The test system of experiment [2] is Bacillus anthracis. Nature of the experiment: Antimicrobial activity against Bacillus anthracis Sterne 402 harboring gyrA Ser85Leu mutant gene by broth microdilution method. Format: functional, Bacillus anthracis str. Sterne.
The test system of experiment [3] is Bacillus anthracis. Nature of the experiment: Antimicrobial activity against Bacillus anthracis A0465 by broth microdilution method. Format: functional. (Dilution methods test growth across graded concentrations, often in twofold steps.)
Experiment [4] concerns Bacillus anthracis. Kind of experiment: Antimicrobial activity against Bacillus anthracis A0248 by broth microdilution method. The experiment is classed as functional.
For experiment [5], the system named is Bacillus anthracis. Kind of experiment: Antimicrobial activity against Bacillus anthracis A0462 by broth microdilution method. The experiment is classed as functional.
Experiment [6] has as its system Bacillus anthracis. Nature of the experiment: Antimicrobial activity against Bacillus anthracis A03768 by broth microdilution method. The experiment is classed as functional.
The subject of experiment [7] is Bacillus anthracis. Kind of experiment: Antimicrobial activity against Bacillus anthracis A0193 by broth microdilution method. Format: functional.
Experiment [8] has as its system Bacillus anthracis. Kind of experiment: Antimicrobial activity against Bacillus anthracis Sterne 411A2 assessed as growth inhibition at 16 ug/ml after 4 hrs relative to control. The settings on record: Bacillus anthracis str. Sterne. The experiment is classed as functional, organism-based.
The test system of experiment [9] is Bacillus anthracis. Kind of experiment: Antimicrobial activity against tetracycline-nonsusceptible Bacillus anthracis Sterne S1028 by broth microdilution method. The experiment is classed as functional, Bacillus anthracis str. Sterne.
Experiment [10] relates to Bacillus anthracis. Nature of the experiment: Antimicrobial activity against Bacillus anthracis 240 by broth microdilution method. The experiment is classed as functional.
For experiment [11], the system named is Bacillus anthracis. Kind of experiment: Antimicrobial activity against Bacillus anthracis A0102 by broth microdilution method. Format: functional.
In experiment [12] the test system is Bacillus anthracis. Nature of the experiment: Antimicrobial activity against Bacillus anthracis A0488 by broth microdilution method. Format: functional.
For experiment [13], the system named is Bacillus anthracis. Nature of the experiment: Antimicrobial activity against Bacillus anthracis A0188 by broth microdilution method. Format: functional.
Experiment [14] relates to Bacillus anthracis. Kind of experiment: Antimicrobial activity against Bacillus anthracis A0264 by broth microdilution method. The experiment is classed as functional.
For experiment [15], the system named is Bacillus anthracis. Kind of experiment: Antimicrobial activity against Bacillus anthracis A0419 by broth microdilution method. Format: functional.
For experiment [16], the system named is Bacillus anthracis. Kind of experiment: Antimicrobial activity against Bacillus anthracis A0149 by broth microdilution method. Format: functional.
Experiment [17] relates to Bacillus anthracis. Nature of the experiment: Antimicrobial activity against Bacillus anthracis A0293 by broth microdilution method. Format: functional.
For experiment [18], the system named is Bacillus anthracis. Nature of the experiment: Antimicrobial activity against pXO1-positive and pXO2 negative Bacillus anthracis 34F2 by broth microdilution method. The experiment is classed as functional.

As to `O=C(O)c1cn(C2CC2)c2cc(N3CCNCC3)c(F)cc2c1=O` [CIPROFLOXACIN], the MIC (in general, the lowest concentration found to suppress growth) in experiment [1] is greater than 16 µg/mL; in [2], 1 µg/mL (≈ 3.02 µM); in [3] it was 0.03 µg/mL (≈ 0.0905 µM); in [4] it was 0.12 µg/mL (≈ 0.362 µM); in [5], 0.12 µg/mL (≈ 0.362 µM); in [6], 0.12 µg/mL (≈ 0.362 µM). For the same compound, the minimum inhibitory concentration (MIC) in experiment [7] was determined as 0.015 µg/mL (≈ 0.0453 µM). The inhibition entry in experiment [8] is “inactive”.
For the compound `C[C@H]1c2cccc(O)c2C(=O)C2=C(O)[C@]3(O)C(=O)C(C(N)=O)=C(O)[C@@H](N(C)C)[C@@H]3[C@@H](O)[C@@H]21.O` [DOXYCYCLINE], the MIC in experiment [9] was 1 µg/mL; in experiment [1] it was “<=0.06 ug ml-1”; in experiment [2], “<=0.06 ug ml-1”; in experiment [10] it was no more than 0.06 µg/mL; in experiment [11] it was no more than 0.06 µg/mL; in experiment [12], no more than 0.06 µg/mL. The MIC in [3], in [4], in [5], in experiment [6], in [13] and in experiment [14] was no more than 0.06 µg/mL each time. Moreover, the minimum inhibitory concentration (MIC) in experiment [15], in experiment [16], in experiment [17], in experiment [7] and in [18] was no more than 0.06 µg/mL each time.

These data come from ChEMBL document CHEMBL1275243 (2010).
